The values below come from patent US6294562A, “Salts of ethyl 3-(2-(4-(4-amino-imino-methyl)phenyl)-4-methyl-2,5-dioxo-imidazolidin-1-yl )acetylamino)-3-phenylpropionate” (Hoechst Aktiengesellschaft, priority 1996, dated 2001).

Structures are written as SMILES.

The subject of data set [1] is collagen induced ex vivo platelet aggregation. Description: Ex vivo platelet aggregation inhibition in dogs, collagen induced. More on the design: species or system dog. The following applies: collagen plus epinephrine. How it is done:
(§1) Dogs of either sex (mixed breed of Labrador/Harrier, body weight 21-28 kg) were fasted overnight. The test compounds were administered orally in gelatine capsules or intravenously. Before administration of the test compounds and several times during 24 hours thereafter, 20 ml of blood were withdrawn from the cephalic vein into acid citrate dextrose (9+1volumes). Platelet rich plasma (PRP) was obtained by centrifugation. Platelet aggregation was measured in PRP after addition of either ADP (3-30 μmol/l) or collagen (0.3-10 μg/ml) plus epinephrine (10 μM) at 37° C. in an aggregometer (BioData). Percent of maximal aggregation before and after drug administration was compared. The percent inhibition of aggregation at the lowest concentration of the agonist which induced irreversible maximal aggregation is given. In addition, the cutaneous bleeding time was measured at the shaved inner forearm using the Simplate® 1 device at the times of blood collection. Percent prolongation of bleeding time after drug administration as compared to the predrug value is calculated.
When ethyl (S)-3-(2-( (S)-4-(4-(amino-imino-methyl) phenyl)-4-methyl-2,5-dioxoimidazolidin-1-yl)acetylamino)-3-phenylpropionate hydrogen maleate was examined the following results were obtained. Given is the percent inhibition of platelet aggregation 1 h, 4 h, 8 h and 24 h after administration of the test substance. The dose is given in mg per kg body weight. n is the number of dogs tested.

Data set [2] can be described thus: Cutaneous bleeding time in dogs (Simplate 1 device). The format is in vivo, dog. Particulars: for maximal prolongation of bleeding time: p<0.05. On the procedure:
as §1

Consider `CCOC(=O)C[C@H](NC(=O)CN1C(=O)N[C@@](C)(c2ccc(C(=N)N)cc2)C1=O)c1ccccc1.O=C(O)/C=C\C(=O)O` [Ethyl (S)-3-(2-((S)-4-(4-(amino-imino-methyl)phenyl)-4-methyl-2,5-dioxo-imidazolidin-1-yl)acetylamino)-3-phenylpropionate hydrogen maleate], for which the Inhibition of aggregation in data set [1] (0.5 mg/kg intravenously, n=6, after 1 h) is recorded as 27%; in data set [1] (0.5 mg/kg intravenously, n=6, after 4 h) it was 26%; in data set [1] (0.5 mg/kg intravenously, n=6, after 8 h), 18%; in data set [1] (0.5 mg/kg intravenously, n=6, after 24 h) it was 0%; in data set [1] (0.5 mg/kg orally, n=6, after 1 h), 8%; in data set [1] (0.5 mg/kg orally, n=6, after 4 h) it was 19%. Besides, the Inhibition of aggregation was determined as 5% in data set [1] (0.5 mg/kg orally, n=6, after 8 h); 0% in data set [1] (0.5 mg/kg orally, n=6, after 24 h); 36% in data set [1] (1 mg/kg orally, n=6, after 1 h); 67% in data set [1] (1 mg/kg orally, n=6, after 4 h); 50% in data set [1] (1 mg/kg orally, n=6, after 8 h); 11% in data set [1] (1 mg/kg orally, n=6, after 24 h). Further, the Inhibition of aggregation is listed as 28% in data set [1] (2 mg/kg orally, n=8, after 1 h); 65% in data set [1] (2 mg/kg orally, n=8, after 4 h); 60% in data set [1] (2 mg/kg orally, n=8, after 8 h); 20% in data set [1] (2 mg/kg orally, n=8, after 24 h). For the same compound, the “maximal prolongation of bleeding time” value in data set [2] (0.5 mg/kg intravenous, at 4 hours) was 68%; in data set [2] (2 mg/kg oral, at 2 hours), 122%. In addition, in data set [2] (at the lower oral doses (0.5 and 1 mg/kg)), the bleeding times result is “not significantly changed”.
